Here are results for 17 compounds from patent US7432264B2, “Antimicrobial biaryl compounds” (Isis Pharmaceuticals, Inc., priority 2000, dated 2008).

In brackets after ≈: the same amount, converted by molar mass. Like-named read-outs stand apart in the source and are kept apart here.

The test system of experiment [1] is S. aureus ATCC 13709. Put plainly: Minimum inhibitory concentration (MIC), S. aureus. It counts as cell-based, Staphylococcus aureus. Conditions: Staphylococcus aureus. As to the method: (§1) Bacterial Strains. The Streptococcus pyogenes strains, Klebsiella pneumoniae, Escherichia coli, Staphylococcus aureus, Enterococcus faecalis used in the antibacterial activity studies ATCC 14289, 49399, 13883, 25922, 13709, 29212, respectively, are obtained from the American Type Culture Collection, Rockville, Md. The strain E. coli imp— is a mutant strain of wild type E. coli with increased outer membrane permeability and was grown in LB broth at 37 °C. S. pyogenes strain is grown in Todd-Hewitt broth. S. aureus is grown in trypticase soy broth, E. faecalis in Todd-Hewitt broth, wild type E. coli and K. pneumoniae, in nutrient broth.
(§2) Determination of Minimum Inhibitory Concentrations (MICs). The assays were carried out in […] volume in duplicate in 96-well clear flat-bottom plates. The bacterial suspension from an overnight culture growth in appropriate medium was added to a solution of test compound in 4% DMSO in water. Final bacterial inoculum was approximately 10^5-10^6 CFU/well. The percent growth of the bacteria in test wells relative to that observed for a well containing no compound was determined by measuring absorbance at 595 nm (A595) after 24 h. […] Both ampicillin and tetracycline is used as antibiotic-positive controls in each screening assay for S. pyogenes, E. coli imp-, E. coli, S. aureus, E. faecalis, K pneumoniae and P. vulgaris. Ciprofloxacin is used as an antibiotic positive control in each screening assay for P. aeruginosa.

The test system of experiment [2] is E. coli ATCC 25922. Put plainly: Minimum inhibitory concentration (MIC), E. coli. It counts as cell-based, Escherichia coli. Conditions: Escherichia coli. The method, then: as §1, §2
Where [3] appears, read: ATCC13709, 24 h, read-out: MIC (S. aureus).
[4] abbreviates: ATCC25922, 24 h, read-out: MIC (E. coli).
Where [5] appears, read: ATCC13709, read-out: MIC (S. aureus) +serum, with serum.
Setting [6] is: ATCC13709, read-out: MIC (S. aureus) alone, alone (no serum).
The mark [7] stands for this setting: ATCC25922, read-out: MIC (E. coli) +serum.
Setting [8] is: ATCC25922, read-out: MIC (E. coli) alone.

Usually MIC stands for the least concentration at which growth counts as inhibited. `Cc1ccc(F)cc1-c1ccc(C(=O)Nc2cccc(-c3ccc(C(=O)NC(C(=O)N4CCNCC4)c4ccc(OCCCN(C)C)cc4)o3)c2)cc1` (centres unmarked) [Compound 52]: the MIC in experiment [1] (setting [3]) lay in the range of 6 to 13 mM (≈ 4310 to 9330 µg/mL); in experiment [2] (setting [4]), 13 to 25 mM (≈ 9330 to 17900 µg/mL).
The like results for `CN(C)CCCOc1ccc(C(NC(=O)c2ccc(-c3cccc(NC(=O)c4ccc(-c5ccccc5F)cc4)c3)o2)C(=O)N2CCNCC2)cc1` (centres unmarked) [Compound 53] were, in that order, 6 to 13 mM (≈ 4220 to 9150 µg/mL) and 13 to 25 mM (≈ 9150 to 17600 µg/mL).
Regarding `CN(C)CCCOc1ccc(C(NC(=O)c2ccc(-c3cccc(NC(=O)c4ccc(-c5c(F)cccc5F)cc4)c3)o2)C(=O)N2CCNCC2)cc1` (centres unmarked) [Compound 54], the results for the MIC in experiment [1] (setting [3]) and in experiment [2] (setting [4]) were 13 to 25 mM (≈ 9380 to 18000 µg/mL) and 3 to 6 mM (≈ 2170 to 4330 µg/mL), respectively.
In the case of `CN(C)CCCOc1ccc(C(NC(=O)c2ccc(-c3cccc(NC(=O)c4ccc(-c5ccc(F)cc5F)cc4)c3)o2)C(=O)N2CCNCC2)cc1` (centres unmarked) [Compound 55], the values for the MIC in experiment [1] (setting [3]) and in experiment [2] (setting [4]) were 6 to 13 mM (≈ 4330 to 9380 µg/mL) and 25 to 50 mM (≈ 18000 to 36100 µg/mL), respectively.
On to `CN(C)CCCOc1ccc(C(NC(=O)c2ccc(-c3cccc(NC(=O)c4ccc(-c5ccccc5)cc4F)c3)o2)C(=O)N2CCNCC2)cc1` (centres unmarked) [Compound 59], for which the MIC lay in the range of 6 to 13 mM (≈ 4220 to 9150 µg/mL) in experiment [1] (setting [3]) and 3 to 6 mM (≈ 2110 to 4220 µg/mL) in experiment [2] (setting [4]).
In the case of `CN(C)CCCOc1ccc(C(NC(=O)c2ccc(-c3cccc(NC(=O)c4ccc(-c5ccccc5)cc4Cl)c3)o2)C(=O)N2CCNCC2)cc1` (centres unmarked) [Compound 60], the MIC in experiment [1] (setting [3]) is 25 to 50 mM (≈ 18000 to 36000 µg/mL); in experiment [2] (setting [4]), 6 to 13 mM (≈ 4320 to 9360 µg/mL).
In the case of `Cc1cc(C(=O)Nc2cccc(-c3ccc(C(=O)NC(C(=O)N4CCNCC4)c4ccc(OCCCN(C)C)cc4)o3)c2)ccc1-c1ccccc1` (centres unmarked) [Compound 62], the MIC in experiment [1] (setting [3]) is 12 to 25 mM (≈ 8400 to 17500 µg/mL); in experiment [2] (setting [4]), 3 to 6 mM (≈ 2100 to 4200 µg/mL).
The like results for `CN(C)CCCOc1ccc(C(C(=O)N2CCNCC2)N(C)Cc2ccc(-c3cccc(NC(=O)c4ccc(-c5ccccc5)cc4)c3)o2)cc1` (centres unmarked) [Compound 64] were, in that order, 3 to 6 mM (≈ 2060 to 4120 µg/mL) and 6 to 13 mM (≈ 4120 to 8920 µg/mL).
With `CN(C)CCCOc1ccc(C(NC(=O)c2ccc(-c3cccc(NCc4ccc(-c5ccccc5)cc4)c3)o2)C(=O)N2CCNCC2)cc1` (centres unmarked) [Compound 65], the figures for the MIC in experiment [1] (setting [3]) and in experiment [2] (setting [4]) were 3 to 6 mM (≈ 2020 to 4030 µg/mL) and 13 to 25 mM (≈ 8730 to 16800 µg/mL), respectively.
Take `CN(C)CCCOc1ccc(C(NC(=O)c2ccc(-c3cccc(N(C)Cc4ccc(-c5ccccc5)cc4)c3)o2)C(=O)N2CCNCC2)cc1` (centres unmarked) [Compound 66]: the minimal inhibitory concentration (MIC) in experiment [1] (setting [3]) was 3 to 6 mM (≈ 2060 to 4120 µg/mL); in experiment [2] (setting [4]), 13 to 25 mM (≈ 8920 to 17100 µg/mL).
`CN(C)CCCCC(NC(=O)c1ccc(-c2cccc(NC(=O)c3ccc(-c4ccccc4)cc3)c2)o1)C(=O)N1CCNCC1` (centres unmarked) [Compound 68]: the MIC in experiment [1] (setting [3]) was 25 to 50 mM (≈ 15200 to 30400 µg/mL); in experiment [2] (setting [4]), 50 to 100 mM (≈ 30400 to 60800 µg/mL).
As for `CN(C)CCCOc1ccc(C(NC(=O)c2ccc(-c3cccc(NC(=O)c4ccc(-c5ccccc5)cc4)c3)s2)C(=O)N2CCNCC2)cc1` (centres unmarked) [Compound 69], the MIC in experiment [1] (setting [3]) and in experiment [2] (setting [4]) was 25 to 50 mM (≈ 17500 to 35100 µg/mL) throughout.
As for `CN(C)CCCOc1ccc(C(NC(=O)c2ccc(-c3cccc(NC(=O)c4ccc(-c5ccccc5)cc4)c3)o2)C(=O)N2CCN(C)CC2)cc1` (centres unmarked) [Compound 70], the MIC in experiment [1] (setting [3]) and in experiment [2] (setting [4]) was 25 to 50 mM (≈ 17500 to 35000 µg/mL) throughout.
With `CN(C)CCCOc1ccc(C(NC(=O)c2ccc(-c3cccc(NC(=O)c4ccc(-c5ccccc5)cc4)c3)o2)C(=O)N2CCN(S(C)(=O)=O)CC2)cc1` (centres unmarked) [Compound 71], the MIC in experiment [1] (setting [3]) and in experiment [2] (setting [4]) was above 100 mM each time.
With `COC(=O)N1CCN(C(=O)C(NC(=O)c2ccc(-c3cccc(NC(=O)c4ccc(-c5ccccc5)cc4)c3)o2)c2ccc(OCCCN(C)C)cc2)CC1` (centres unmarked) [Compound 72], the MIC in experiment [1] (setting [3]) and in experiment [2] (setting [4]) was above 100 mM throughout.
`CN(C)CCCOc1ccc(C(NC(=O)c2ccc(-c3cccc(NC(=O)c4ccc(-c5ccccc5)cc4)c3)o2)C(=O)N2CCNCC2)cc1` (centres unmarked) [drawing 88]: the MIC in experiment [1] (setting [5]) is 50 to 100 mM (≈ 34300 to 68600 µg/mL); in experiment [1] (setting [6]), 3 to 6 mM (≈ 2060 to 4110 µg/mL); in experiment [2] (setting [7]), 50 to 100 mM (≈ 34300 to 68600 µg/mL); in experiment [2] (setting [8]) it was 6 to 13 mM (≈ 4110 to 8920 µg/mL).
Turning to `CN(C)CCCOc1ccc(C(NC(=O)c2ccc(-c3cccc(N(C)Cc4ccc(-c5ccccc5)cc4)c3)o2)C(=O)N2CCNCC2)cc1` (centres unmarked) [drawing 89], the MIC in experiment [1] (setting [5]) is 50 to 100 mM (≈ 34300 to 68600 µg/mL); in experiment [1] (setting [6]), 3 to 6 mM (≈ 2060 to 4120 µg/mL); in experiment [2] (setting [7]), above 100 mM; in experiment [2] (setting [8]) it was 6 to 13 mM (≈ 4120 to 8920 µg/mL).
